Reference: the NIST ThermoML archive (doi:10.1016/j.jct.2009.11.018)
± gives the expanded uncertainty stated by the source.

Assay: xn = mol fraction of the nth substance listed
Conditions: 298.15 K, 101 kPa, Liquid, Pycnometric method

Row | Structure (SMILES) | mass density (x1 = 0.0625) | mass density (x1 = 0.1347) | mass density (x1 = 0.2153) | mass density (x1 = 0.3019) | mass density (x1 = 0.3915) | mass density (x1 = 0.4804) | mass density (x1 = 0.5651) | mass density (x1 = 0.6428) | mass density (x1 = 0.7115) | mass density (x1 = 0.7703) | mass density (x1 = 0.8195) | mass density (x1 = 0.8595) | mass density (x1 = 0.8916) | mass density (x1 = 0.9244) | mass density (x1 = 0.0731) | mass density (x1 = 0.1555) | mass density (x1 = 0.2449) | mass density (x1 = 0.3384) | mass density (x1 = 0.4321) | mass density (x1 = 0.5223) | other results
1 | CCC(O)CO (centres undefined) [1,2-butanediol] + O | 1009.5 ± 2.7 kg/m3 | 1015.8 ± 2.7 kg/m3 | 1016.4 ± 2.7 kg/m3 | 1014.2 ± 2.7 kg/m3 | 1011.6 ± 2.7 kg/m3 | 1009.2 ± 2.7 kg/m3 | 1006.9 ± 2.7 kg/m3 | 1005.2 ± 2.7 kg/m3 | 1003.6 ± 2.7 kg/m3 | 1002.4 ± 2.7 kg/m3 | 1001.4 ± 2.7 kg/m3 | 1000.7 ± 2.7 kg/m3 | 1000.2 ± 2.7 kg/m3 | 999.9 ± 2.7 kg/m3 |  |  |  |  |  |  | 
2 | CC(O)CO (centres undefined) [1,2-propanediol] + O |  |  |  |  |  |  |  |  |  |  |  |  |  |  | 1016.4 ± 2.7 kg/m3 | 1031.1 ± 2.7 kg/m3 | 1037.7 ± 2.7 kg/m3 | 1039.6 ± 2.7 kg/m3 | 1039.8 ± 2.7 kg/m3 | 1039 ± 2.7 kg/m3 | mass density (x1 = 0.6058): 1038 ± 2.7 kg/m3; mass density (x1 = 0.6803): 1036.8 ± 2.7 kg/m3; mass density (x1 = 0.7446): 1035.9 ± 2.7 kg/m3; mass density (x1 = 0.7987): 1035 ± 2.7 kg/m3; mass density (x1 = 0.843): 1034.5 ± 2.7 kg/m3; mass density (x1 = 0.8786): 1033.8 ± 2.7 kg/m3; mass density (x1 = 0.9068): 1033.4 ± 2.7 kg/m3; mass density (x1 = 0.9355): 1033.1 ± 2.7 kg/m3
3 | CC(O)CCO (centres undefined) [1,3-butanediol] + O | 1008.2 ± 2.7 kg/m3 | 1015.9 ± 2.7 kg/m3 | 1019.2 ± 2.7 kg/m3 | 1018.8 ± 2.7 kg/m3 | 1016.8 ± 2.7 kg/m3 | 1014.4 ± 2.7 kg/m3 | 1012.2 ± 2.7 kg/m3 | 1009.9 ± 2.7 kg/m3 | 1007.9 ± 2.7 kg/m3 | 1006.2 ± 2.7 kg/m3 | 1004.8 ± 2.7 kg/m3 | 1003.8 ± 2.6 kg/m3 | 1003 ± 2.6 kg/m3 | 1002.2 ± 2.6 kg/m3 |  |  |  |  |  |  | 
4 | OCCCCO [1,4-butanediol] + O | 1006.6 ± 2.7 kg/m3 | 1015 ± 2.7 kg/m3 | 1019.9 ± 2.7 kg/m3 | 1021.6 ± 2.7 kg/m3 | 1021.7 ± 2.7 kg/m3 | 1021 ± 2.7 kg/m3 | 1020 ± 2.7 kg/m3 | 1018.8 ± 2.7 kg/m3 | 1017.5 ± 2.7 kg/m3 | 1016.6 ± 2.7 kg/m3 | 1015.7 ± 2.7 kg/m3 | 1015.1 ± 2.7 kg/m3 | 1014.7 ± 2.7 kg/m3 | 1014.1 ± 2.7 kg/m3 |  |  |  |  |  |  | 
5 | CC(O)C(C)O (centres undefined) [2,3-butanediol] + O |  |  |  |  |  |  |  |  |  |  |  |  |  |  |  |  |  |  |  |  | mass density (x1 = 0.0618): 1014.1 ± 2.7 kg/m3; mass density (x1 = 0.1379): 1021.5 ± 2.7 kg/m3; mass density (x1 = 0.1796): 1023.1 ± 2.7 kg/m3; mass density (x1 = 0.2179): 1023.2 ± 2.7 kg/m3; mass density (x1 = 0.2417): 1022.7 ± 2.7 kg/m3; mass density (x1 = 0.2696): 1022 ± 2.7 kg/m3; mass density (x1 = 0.3027): 1021 ± 2.7 kg/m3; mass density (x1 = 0.3426): 1019.5 ± 2.7 kg/m3; mass density (x1 = 0.3913): 1017.6 ± 2.7 kg/m3; mass density (x1 = 0.4524): 1015.2 ± 2.7 kg/m3; mass density (x1 = 0.5308): 1012.2 ± 2.7 kg/m3; mass density (x1 = 0.6352): 1008.4 ± 2.7 kg/m3; mass density (x1 = 0.7805): 1004.1 ± 2.7 kg/m3; mass density (x1 = 0.9001): 1000.9 ± 2.7 kg/m3
6 | OCCCO [propan-1,3-diol] + O |  |  |  |  |  |  |  |  |  |  |  |  |  |  | 1015.1 ± 2.7 kg/m3 | 1028.5 ± 2.7 kg/m3 | 1038.2 ± 2.8 kg/m3 | 1044.4 ± 2.8 kg/m3 | 1047.9 ± 2.8 kg/m3 | 1049.6 ± 2.8 kg/m3 | mass density (x1 = 0.6058): 1050.3 ± 2.8 kg/m3; mass density (x1 = 0.6803): 1050.4 ± 2.8 kg/m3; mass density (x1 = 0.7446): 1050.5 ± 2.8 kg/m3; mass density (x1 = 0.7987): 1050.5 ± 2.8 kg/m3; mass density (x1 = 0.843): 1050.4 ± 2.8 kg/m3; mass density (x1 = 0.8786): 1050.4 ± 2.8 kg/m3; mass density (x1 = 0.9068): 1050.2 ± 2.8 kg/m3; mass density (x1 = 0.9355): 1049.9 ± 2.8 kg/m3
